Assays:
CaR = target: T1, CaR (Homo sapiens, UniProt P41180); settings: activation of CaR; Olszak et al., 2000; cited from earlier work
T1 construct: host or cells: monocytes
T1 sequence (P41180 20-1078): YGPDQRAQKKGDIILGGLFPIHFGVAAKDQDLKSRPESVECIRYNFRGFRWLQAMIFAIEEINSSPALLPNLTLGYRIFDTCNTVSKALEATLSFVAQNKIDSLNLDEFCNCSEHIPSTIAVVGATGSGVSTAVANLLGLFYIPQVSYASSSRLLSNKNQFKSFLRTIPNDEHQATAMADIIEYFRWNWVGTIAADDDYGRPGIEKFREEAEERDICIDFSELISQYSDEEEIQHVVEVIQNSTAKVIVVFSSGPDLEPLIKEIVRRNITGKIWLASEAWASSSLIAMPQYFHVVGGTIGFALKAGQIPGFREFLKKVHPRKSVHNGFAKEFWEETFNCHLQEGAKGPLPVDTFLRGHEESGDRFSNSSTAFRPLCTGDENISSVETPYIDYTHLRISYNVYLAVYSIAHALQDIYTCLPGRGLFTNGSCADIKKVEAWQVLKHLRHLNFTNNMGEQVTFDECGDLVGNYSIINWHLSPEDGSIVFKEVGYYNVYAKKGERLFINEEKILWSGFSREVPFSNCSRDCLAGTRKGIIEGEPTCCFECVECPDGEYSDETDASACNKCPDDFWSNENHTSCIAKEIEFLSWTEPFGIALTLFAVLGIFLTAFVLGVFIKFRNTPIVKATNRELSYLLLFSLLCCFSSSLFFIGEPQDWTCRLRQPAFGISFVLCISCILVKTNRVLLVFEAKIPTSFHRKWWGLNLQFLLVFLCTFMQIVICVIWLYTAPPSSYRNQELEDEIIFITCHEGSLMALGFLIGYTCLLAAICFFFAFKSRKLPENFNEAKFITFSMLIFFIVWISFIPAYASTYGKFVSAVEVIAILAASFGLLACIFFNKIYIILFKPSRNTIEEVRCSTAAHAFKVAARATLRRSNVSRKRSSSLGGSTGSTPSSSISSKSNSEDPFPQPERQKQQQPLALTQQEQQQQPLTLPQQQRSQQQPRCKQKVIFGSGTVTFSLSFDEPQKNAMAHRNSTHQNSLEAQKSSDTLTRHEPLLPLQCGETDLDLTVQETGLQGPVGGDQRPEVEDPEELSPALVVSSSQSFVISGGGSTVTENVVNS

[1] = test system: Lin− cells isolated from cre^ksp; R26R-EYFP mice; test: Flow cytometry of EYFP+ cells (renal cell conversion); format: cell-based, mouse; settings: TSA 15 nM, 6 h at 2nd stage
Experimental: To confirm renal conversion, Lin^− cells were isolated from bitransgenic creksp; R26R-EYFP mice that express EYFP specifically in the tubular epithelial cells of the kidney. […] However, after the 3rd stage, the induced cells expressed EYFP mRNA by RT-PCR analysis (FIG. 7B) and EYFP protein by immunostaining (FIG. 7C).
Treatment with TSA results in a 6-fold increase in EYFP^+ cells. Lin^− cells isolated from cre^ksp; R26R-EYFP mice were treated with vehicle or TSA (15 nM, 6 h) at the 2nd stage and EYFP^+ cells were quantified by flow cytometry analysis.

[2] = test system: lymphoid cell line / multiple cell lines; settings: cited from earlier work
Lin− cells [3] = test: Cell death in 2nd stage induction culture; format: cell-based, mouse; settings: about 15 nM, 6 hr in the 2nd stage
Text: Use of HDAC inhibitors may take into account the fact that high dose and/or long period of HDAC inhibition may induce widespread changes in gene expression. For example, treatment of metanephric organs cultures with HDAC inhibitor induces significant disturbance in the transcription network (Chen et al., 2007).

HDAC = settings: Vigushin et al., 2001, cited from earlier work
Lin− cells [4] = test: qRT-PCR of renal developmentally regulated genes in induced cells; format: cell-based, mouse; settings: TSA 15 nM, 6 h at 2nd stage vs vehicle, cells after 3rd stage
Experimental: Lin^− cells, which include lineage undifferentiated hematopoietic stem cells and progenitor cells, were isolated to 99.8% purity by FACS as described (Lin et al., 2003). Purified Lin^− cells were cultured sequentially in the presence of cytokines including IL-3, IL-6, and stem cell factor for 48 hr (1st stage); nephrogenic factors including retinoic acid, activin-A and BMP7 for 48 hr (2nd stage); and epithelial growth factors including EGF, IGF-1 and HGF for 72 hr (3rd stage). The total induction period is 1 week. Cytokine treatment is known to stimulate HSC to enter the cell cycle and the cells remain as hematopoietic cells after 48 hr in these culture conditions (Luskey et al., 1992; Reddy et al., 1997). The nephrogenic factors that were used can induce differentiation of mouse ES cells into renal epithelial cells as reported by Kim and Dressler (2005). Therefore, the inventors reasoned that nephrogenic factors might induce cycling Lin^− cells to select a renal cell fate. Further treatment of the cells with epithelial growth factors would promote epithelial growth. After the 1st stage, the cells remained small, round, and discrete (FIG. 5B, top left). After the 3rd stage, the cells increased in size and formed floating spheres (FIG. 5B, top right). The inventors took the precaution of only transferring cells in suspension to new culture dishes. The adherent cells that might represent bone marrow stromal/stem cells (MSC) were discarded. In some experiments, the inventors continued the cultures for an additional 7 days after the induction period (total 14 days) and observed an epithelial-like morphology in the cells (FIG. 5B, bottom). In the Examples section, the inventors will use the term “induced cells” to refer to cells after the 3rd stage culture (1 week induction).
(§1) The HDAC inhibitor TSA increases expression of renal developmentally regulated genes in induced cells. Although HDAC inhibitor trichostatin A (TSA) is a non-selective inhibitor of HDACs, TSA only alter 2-10% of the genes tested in multiple cell lines (Gray et al., 2004; Lee et al., 2006b; Mitsiades et al., 2004; Peart et al., 2005).

[5] = test system: cadherin 6, cadherin 16, Lim1, Gdnf and Pax2 promoters; test: ChIP assay of histone acetylation on renal gene promoters; format: cell-based, mouse; settings: TSA 15 nM, 6 h at 2nd stage vs vehicle; ChIP after 3rd stage
Text: Increased histone acetylation accompanies cell conversion. To begin to understand the mechanisms of cell conversion and its associated nuclear reprogramming, the inventors examined the possibility of epigenetic regulation by histone modifications and chromatin remodeling. Chromatin modifications were detected using chromatin immunoprecipitation assays (ChIP assays) as described (Shang et al., 2000). Antibodies to acetylated histones H3 and H4 and tri-methylated histone H3 (lysine 9 or K9) were used for immunoprecipitation. […] In contrast, there was no change in tri-methylation of H3K9 on the cadherin 6 promoter (top panel). Acetylation of H3 but not H4 on the cadherin 16 promoter was increased after the 3rd stage. Tri-methylation of H3K9 on the cadherin 16 promoter seemed to increase after the 3rd stage.
as §1

bone marrow stem cells = settings: Tayaramma et al., 2006; cited from earlier work

SMILES | monocyte migration in response to calcium (CaR) | increase in EYFP+ cells (cell conversion) vs vehicle [1] [fold] | EYFP+ cells after the 3rd stage ([1]; flow cytometry, vehicle group 6.3%) [%] | proportion of expressed genes altered ([2]; 340 expressed genes in a lymphoid cell line, Van Lint et al., 1996) [%] | proportion of genes tested altered ([2]; multiple cell lines, literature) | cell death (Lin− cells [3]) | IC50 of inhibition of HDAC activity (HDAC) | reversibility of inhibition of HDAC activity (HDAC; in cell cultures and in vivo) | Cdh 6 -Fold increase (Lin− cells [4]; *p<0.05, n=3) | Cdh 16 -Fold increase (Lin− cells [4]; *p<0.05, n=3) | Gdnf -Fold increase (Lin− cells [4]; *p<0.05, n=3) | Lim1 -Fold increase (Lin− cells [4]; *p<0.05, n=3) | Osr 1 -Fold increase (Lin− cells [4]; *p<0.05, n=3) | Pax2 -Fold increase (Lin− cells [4]; *p<0.05, n=3) | 18s RNA -Fold increase (Lin− cells [4]; control gene, n=3) [Fold] | Six2 -Fold increase (Lin− cells [4]; n=3) [Fold] | histone H3 and H4 acetylation on promoters of renal genes [5] | differentiation of insulin-producing cells (bone marrow stem cells)
COc1cccc([C@@H](C)NCCCc2ccccc2)c1 [NPS R-467] | increases |  |  |  |  |  |  |  |  |  |  |  |  |  |  |  |  | 
CC(/C=C/C(=O)NO)=C\[C@@H](C)C(=O)c1ccc(N(C)C)cc1 [TSA, trichostatin A] |  | 6 | 37.9 | 2 | 2-10% | no increase in cell death | nanomolar range | reversible | 16.5* Fold | 4.39* Fold | 5.39* Fold | 8.29* Fold | 14.95* Fold | 3.28* Fold | −0.06 | 1.3 | increased histone H3 and H4 acetylation | led to differentiation of insulin-producing cells
